According to publication PMC6308302, “Identification of Pharmacokinetic Markers for Guanxin Danshen Drop Pills in Rats by Combination of Pharmacokinetics, Systems Pharmacology, and Pharmacodynamic Assays” (Frontiers in Pharmacology, 2018):
“Also recorded” adds a separate entry of the source. Marks after values point to notes of the source that are not given here.

Experiments:
[1] = Aqueous solubility test (vortexing in water); assay type: physicochemical
Experimental: Aqueous solubility (S) test of the 17 ingredients was performed by vortexing 10 mg of each ingredient in […] water in a test tube at ambient temperature and 1 atm. After vortexing for 5 min, if the solution is clear, the tested object will be considered as soluble in water. In silico assessment of the physicochemical properties governing permeation and intestinal absorption was carried out for the 17 ingredients studied. Theory aqueous solubility (S) was calculated with ALOGPS 2.1 online software via the Virtual Computational Chemistry Laboratory service (Chemoinformatics Group, Neuherberg, Germany) (VCCLAB^1). The octanol–water partition coefficient (cLogP), the total hydrogen bond count (donors and acceptors), and topological polar surface area (TPSA) were determined using the Molinspiration Property Calculator (Molinspiration Cheminformatics, Bratislava, Slovak Republic^2). Lipinski’s rule of 5 was used to predict the permeability of the compound ([Lipinski et al., 2001]).

Caco-2 cell monolayers = settings: ref Lu et al., 2008, Liu et al., 2009, Hu et al., 2014, Bowles et al., 2017, cited from earlier work; for Papp(apical→basolateral) / Papp(basolateral→apical): Caco-2 cell monolayers, from literature; for apparent permeability in Caco-2 cell monolayers: previous results
[2] = system: isoprenaline-induced MI in mice; assay: In vivo anti-MI study: isoprenaline-induced myocardial injury (ECG, H&E histology); settings: for Histopathology of heart tissue (H&E): 40 mg/kg p.o. for 7 days, isoprenaline-induced MI, 40 mg/kg; for ECG (lead II) findings on the fifth day of the trial: 40 mg/kg p.o., isoprenaline 5 mg/kg on days 4 and 5
[3] = Stability tests in rat plasma (QC samples, HPLC-MS); settings: n=5
Excerpt: Accuracy and precision were expressed by relative error (RE) and coefficient of variance (RSD), respectively.

[4] = Multiple component PK study in rat plasma after p.o. GDDP (HPLC-MS); settings: for determination in rat plasma at the planned successive PK time points / detection in rat plasma: GDDP 0.8 g/kg p.o.; for determination in rat plasma at the planned successive PK time points: 5, 10, 15, 30, 45, 60, and 120 min, LOQ 1.0–1.4 ng/mL; for detection in rat plasma: at 5, 10, 15, 30, 45, or 60 min, LOD 0.5–0.7 ng/mL; for AUC(0-inf) / AUC(0-t) / MRT inf / MRT last / Tmax / Cmax / half-life: Sprague-Dawley, rat, plasma, po
[5] = 24h in auto-sampler vials, spiked 2 ng/mL
[6] = 24h in auto-sampler vials, spiked 400 ng/mL
[7] = 24h in auto-sampler vials, spiked 1600 ng/mL
[8] = Placing plasma for 6h at 4°C, spiked 2 ng/mL
[9] = Placing plasma for 6h at 4°C, spiked 400 ng/mL
[10] = Placing plasma for 6h at 4°C, spiked 1600 ng/mL
[11] = three freeze-thaw cycles, rat plasma, spiked 2 ng/mL
[12] = three freeze-thaw cycles, rat plasma, spiked 400 ng/mL
[13] = three freeze-thaw cycles, rat plasma, spiked 1600 ng/mL
[14] = 0.4 g/kg, Cmax, rat plasma, GDDP 0.4 g/kg p.o. (Low dose group), n=3
[15] = 0.4 g/kg, t1/2 β, rat plasma, GDDP 0.4 g/kg p.o. (Low dose group), n=3
[16] = 0.8 g/kg, Cmax (high / low plasma drug concentrations), rats, GDDP 0.4 and 0.8 g/kg p.o., classification
[17] = 0.8 g/kg, Cmax, rat plasma, GDDP 0.8 g/kg p.o. (High dose group), n=3
[18] = 0.8 g/kg, t1/2 β (fast / slow elimination type), rats, GDDP 0.4 and 0.8 g/kg p.o., classification
[19] = 0.8 g/kg, t1/2 β, rat plasma, GDDP 0.8 g/kg p.o. (High dose group), n=3
[20] = rat plasma, GDDP 0.4 g/kg p.o. (Low dose group), n=3
[21] = rat plasma, GDDP 0.8 g/kg p.o. (High dose group), n=3

Structure (SMILES): Cc1cccc2c3c(ccc12)C1=C(C(=O)C3=O)[C@@H](C)CO1 [DHTS I, dihydrotanshinone I]
- solubility in water (in words) ([1]; water at 25 °C): insoluble
- Papp(apical→basolateral) (Caco-2 cell monolayers): 1.49^d ×10^-6 cm/s
- Papp(basolateral→apical) (Caco-2 cell monolayers): 8.28^d ×10^-6 cm/s
- apparent permeability in Caco-2 cell monolayers (Caco-2 cell monolayers): ≥ 10^-6 cm/s
- Histopathology of heart tissue (H&E) [2]: remarkably severe histological damage with extensive myocardial lysis and architecture wrecking; also recorded: extremely severe histological damage with extensive myocardial lysis and architecture wrecking
- ECG (lead II) findings on the fifth day of the trial [2]: T waves reversed or decreased
- Stability: Measured [3, 5]: 2.21 ± 0.23 ng/mL
- Stability: RE [3, 5]: 10.31%
- Stability: Measured [3, 6]: 464.67 ± 43.51 ng/mL
- Stability: RE [3, 6]: 16.17%
- Stability: Measured [3, 7]: 1644.43 ± 109.72 ng/mL
- Stability: RE [3, 7]: 2.78%
- Stability: Measured [3, 8]: 2.23 ± 0.06 ng/mL
- Stability: RE [3, 8]: 11.41%
- Stability: Measured [3, 9]: 456.85 ± 38.51 ng/mL
- Stability: RE [3, 9]: 14.21%
- Stability: Measured [3, 10]: 1735.14 ± 230.11 ng/mL
- Stability: RE [3, 10]: 8.45%
- Stability: Measured [3, 11]: 2.015 ± 0.18 ng/mL
- Stability: RE [3, 11]: 2.73%
- Stability: Measured [3, 12]: 437.97 ± 37.90 ng/mL
- Stability: RE [3, 12]: 9.49%
- Stability: RE [3, 13]: 0.88%
- determination in rat plasma at the planned successive PK time points [4]: could be determined
- detection in rat plasma [4]: could be detected
- AUC(0-inf) ([4]; 0.4 g/kg): 14.2 ± 17.2 ng·h/mL
- AUC(0-t) ([4]; 0.4 g/kg): 12.1 ± 14.4 ng·h/mL
- MRT inf ([4]; 0.4 g/kg): 6.93 ± 7.38 h
- MRT last ([4]; 0.4 g/kg): 5.17 ± 5.21 h
- Tmax ([4]; 0.4 g/kg): 1.38 ± 0.88 h
- Cmax [4, 14]: 1.9 ± 1.57 ng/mL
- half-life [4, 15]: 2.68 ± 2.38 h
- AUC(0-inf) ([4]; 0.8 g/kg): 16.1 ± 2.84 ng·h/mL
- AUC(0-t) ([4]; 0.8 g/kg): 14.7 ± 2.51 ng·h/mL
- MRT inf ([4]; 0.8 g/kg): 7.26 ± 3.47 h
- MRT last ([4]; 0.8 g/kg): 5.05 ± 2.03 h
- Tmax ([4]; 0.8 g/kg): 0.83 ± 0.14 h
- Cmax [4, 16]: < 10 ng/mL
- Cmax [4, 17]: 3.1 ± 0.49 ng/mL
- half-life [4, 18]: > 2.6 h
- half-life [4, 19]: 5.57 ± 2.98 h
- Cltot [4, 20]: 101 ± 122 mL/min/kg
- Cltot [4, 21]: 47.7 ± 7.67 mL/min/kg

Structure (SMILES): CC(C)=CCC[C@](C)(O[C@@H]1O[C@H](CO)[C@@H](O)[C@H](O)[C@H]1O)[C@H]1CC[C@]2(C)[C@@H]1[C@H](O)C[C@@H]1[C@@]3(C)CC[C@H](O)C(C)(C)[C@@H]3[C@@H](O[C@@H]3O[C@H](CO)[C@@H](O)[C@H](O)[C@H]3O[C@@H]3OC[C@@H](O)[C@H](O)[C@H]3O)C[C@]12C [R1, notoginsenoside R1]
- solubility at 5 min ([1]; thermodynamic from solid, determined, water, 25 °C, 1 atm): > 10000 µg/mL
- Papp(apical→basolateral) (Caco-2 cell monolayers): > 0.1^c ×10^-6 cm/s
- Papp(basolateral→apical) (Caco-2 cell monolayers): > 0.1^c ×10^-6 cm/s
- apparent permeability in Caco-2 cell monolayers (Caco-2 cell monolayers): > 10^-7 cm/s
- Histopathology of heart tissue (H&E) [2]: remarkably severe histological damage with extensive myocardial lysis and architecture wrecking; also recorded: extremely severe histological damage with extensive myocardial lysis and architecture wrecking
- ECG (lead II) findings on the fifth day of the trial [2]: T waves reversed or decreased
- Stability: Measured [3, 5]: 1.89 ± 0.51 ng/mL
- Stability: RE [3, 5]: -5.63%
- Stability: Measured [3, 6]: 395.76 ± 7.32 ng/mL
- Stability: RE [3, 6]: -1.06%
- Stability: Measured [3, 7]: 1619.10 ± 82.22 ng/mL
- Stability: RE [3, 7]: 1.19%
- Stability: Measured [3, 8]: 1.75 ± 0.34 ng/mL
- Stability: RE [3, 8]: -12.56%
- Stability: Measured [3, 9]: 387.55 ± 18.40 ng/mL
- Stability: RE [3, 9]: -3.11%
- Stability: Measured [3, 10]: 1698.54 ± 105.94 ng/mL
- Stability: RE [3, 10]: 6.16%
- Stability: Measured [3, 11]: 2.15 ± 0.21 ng/mL
- Stability: RE [3, 11]: 7.54%
- Stability: Measured [3, 12]: 395.28 ± 15.09 ng/mL
- Stability: RE [3, 12]: -1.18%
- Stability: Measured [3, 13]: 1784.04 ± 71.20 ng/mL
- Stability: RE [3, 13]: 11.50%
- determination in rat plasma at the planned successive PK time points [4]: could be determined
- detection in rat plasma [4]: could be detected
- AUC(0-inf) ([4]; 0.4 g/kg): 171 ± 92.6 ng·h/mL
- AUC(0-t) ([4]; 0.4 g/kg): 146 ± 58.9 ng·h/mL
- MRT inf ([4]; 0.4 g/kg): 1.31 ± 0.11 h
- MRT last ([4]; 0.4 g/kg): 1.1 ± 0.12 h
- Tmax ([4]; 0.4 g/kg): 0.51 ± 0.7 h
- Cmax [4, 14]: 167 ± 48 ng/mL
- half-life [4, 15]: 0.57 h
- AUC(0-inf) ([4]; 0.8 g/kg): 168 ± 119 ng·h/mL
- AUC(0-t) ([4]; 0.8 g/kg): 120 ± 117 ng·h/mL
- MRT inf ([4]; 0.8 g/kg): 1.92 ± 1.59 h
- MRT last ([4]; 0.8 g/kg): 0.89 ± 0.14 h
- Tmax ([4]; 0.8 g/kg): 0.75 h
- Cmax [4, 16]: > 20 ng/mL
- Cmax [4, 17]: 259 ± 342 ng/mL
- half-life [4, 18]: < 2 h
- half-life [4, 19]: 0.45 h
- Cltot [4, 20]: 55.7 ± 30.2 mL/min/kg
- Cltot [4, 21]: 181.5 ± 187.8 mL/min/kg
